Where a name gives a salt, the structure may show the parent alone. Read-outs that look alike come from different tables or passages of the source.
Columns and labels:
Assay type in all cases: cell-based, human
[1] = test system: NCI-H292 lung cancer cells; assay: FDA drug screening, complete media vs cholesterol-free media with simvastatin (TABLE 2)
PC9 cells = assay: Drug validation, four media conditions; settings: cholesterol-free medium+simvastatin compared to the other media conditions
Protocol: (§1) A series of experiments were designed to assess the effect of cholesterol depletion and statin treatment on the anti-cancer effect of drugs identified in the FDA drug screens. Cancer cells were grown in media containing cholesterol and cholesterol-free media in the presence or absence of simvastatin. The effect of the drug identified in the FDA drug screens on cancer cell growth was measured.
(§2) […]. Medium 1 was ‘complete medium’ containing all essential nutrients, including cholesterol. Medium 2 was cholesterol-free medium. Medium 3 was cholesterol-free medium supplemented with simvastatin 40 nM. Medium 4 was ‘complete medium’ containing all essential nutrients, including cholesterol, supplemented with simvastatin at the IC30 concentration for each cell line.
(§3) On Day 5, cell growth was measured by absorbance or fluorescence. For absorbance growth measurements, spent media was discarded, and wells were stained with a crystal violet staining solution, washed, and dried. 100 μL of 10% acetic acid was added to each well to release the crystal violet taken up by the cells. Plates were read using a Biotek Powerwave plate reader to determine the absorbance of the crystal violet released as an indicator of cell growth at a wavelength of 595 nm. For fluorescence growth measurements, 100 μL of a resazurin solution was added to each well and the plate incubated at 37° C. for four hours. Plates were read using a Biotek Powerwave plate reader to determine the fluorescence of reosurfin as an indicator of cell growth at a wavelength of 590 nm.
(§4) Growth curves showing absorbance of crystal violet at 595 nm or fluorescene of reosurfin at 590 nm were plotted from test wells against the logarithmic concentration of the validation drug. FIG. 9A-9C show growth of cancer cell lines in the four media conditions subjected to increasing doses of neticonazole. FIG. 10A-10D show growth of cancer cell lines in the four media conditions subjected to increasing doses of cepharanthine. FIG. 11A-11B show growth of cancer cell lines in the four media conditions subjected to increasing doses of alverine citrate. FIG. 12A-12B show growth of cancer cell lines in the four media conditions subjected to increasing doses of berbamine. FIG. 13A-13C show growth of cancer cell lines in the four media conditions subjected to increasing doses of pitolisant. FIG. 14A-14G show growth of cancer cell lines in the four media conditions subjected to increasing doses of avapritinib. FIG. 15A-15D show growth of cancer cell lines in the four media conditions subjected to increasing doses of toremifene. FIG. 16A-16C show growth of cancer cell lines in the four media conditions subjected to increasing doses of isavuconazole.

PSN1 cells = assay: Drug validation, four media conditions; settings: cholesterol-free medium+simvastatin compared to the other media conditions
Protocol: as §1, §2, §3, §4

H292 cells = assay: Drug validation, four media conditions; settings: cholesterol-free medium+simvastatin compared to the other media conditions
Protocol: as §1, §2, §3, §4

[2] = test system: NCI-H292 lung cancer cells; assay: FDA drug screening, complete media vs cholesterol-free media without statin (TABLE 1)
[3] = NCI-H292 cells, FDA drug library screen, complete media
[4] = NCI-H292 cells, FDA library drug in cholesterol-free media with simvastatin 0.04 μM
[5] = NCI-H292 cells, FDA library drug in complete media
[6] = complete media vs cholesterol-free media + simvastatin (0.04 μM), >0 enhanced anti-cancer activity, about 0 neutral, <0 antagonist
[7] = Complete minus Cholesterol-free, greater than 0 enhanced anti-cancer activity, about 0 neutral, below 0 antagonists
[8] = NCI-H292 cells in cholesterol-free media without statin
[9] = NCI-H292 cells in complete media
[10] = NCI-H292 cells, drug in cholesterol-free media with simvastatin 0.04 μM
[11] = NCI-H292 cells, drug in complete media
[12] = Complete minus Cholesterol-free, >0 enhanced anti-cancer activity, about 0 neutral, <0 antagonist
[13] = NCI-H292 cells, cholesterol-free media without statin, FDA drug library screen
[14] = NCI-H292 cells, complete media, FDA drug library screen
[15] = NCI-H292 cells, FDA drug library screen, cholesterol-free media with simvastatin 0.04 μM
[16] = complete media minus cholesterol-free media + simvastatin, >0 enhanced anti-cancer activity, about 0 neutral, <0 antagonist
[17] = complete vs cholesterol-free media, >0 enhanced anti-cancer activity, about 0 neutral, <0 antagonist
[18] = NCI-H292 cells, cholesterol-free media with simvastatin 0.04 μM, cell growth value in FDA drug screen
[19] = NCI-H292 cells, complete media, cell growth value in FDA drug screen
[20] = NCI-H292 cells, cholesterol-free media without statin
[21] = complete vs cholesterol-free media, greater than 0 enhanced anti-cancer activity, about 0 neutral, below 0 antagonists

For `CCCCCOc1ccccc1/C(=C\SC)n1ccnc1` [neticonazole, reference compound], the “Complete Media” value ([1]; NCI-H292 cells, FDA drug library screen, complete media, listed as Neticonazole) was 1.262, the Difference ([1]; complete media minus cholesterol-free media + simvastatin, >0 enhanced anti-cancer activity, about 0 neutral, <0 antagonist, listed as Neticonazole) was 0.90 and the “anti-proliferative effect (dose-response curve shift)” value (PC9 cells) was “strongly enhanced”. The “anti-proliferative effect (dose-response curve shift)” value (PSN1 cells) was “strongly enhanced”, the “anti-proliferative effect (dose-response curve shift)” value (H292 cells) was “strongly enhanced” and the Difference ([2]; Complete minus Cholesterol-free, greater than 0 enhanced anti-cancer activity, about 0 neutral, below 0 antagonist) was −0.16. The Cholesterol-free ([2]; NCI-H292 cells, FDA drug library screen, cholesterol-free media without statin) was 0.9493 and the Complete [2, 3] was 0.7904.

Brimonidine (tartrate) was tested, and the “Cholesterol-free media + simvastatin (0.04 μM)” value [1] was 1.704, the “Complete Media” value [1] was 1.309 and the Difference [1] was −0.39. For the same compound, the Cholesterol-free [2] was 1.093, the Complete [2] was 0.9545 and the Difference [2] was −0.14.

`CN/C(=N/CCSCc1nc[nH]c1C)NC#N` [Cimetidine] was tested, and the “Cholesterol-free media + simvastatin (0.04 μM)” value [1, 4] was 1.358, the “Complete Media” value [1, 5] was 0.952 and the Difference [1, 6] was −0.41. For the same compound, the Difference [2, 7] was −0.70, the Cholesterol-free [2, 8] was 1.504 and the Complete [2, 9] was 0.8083.

In the case of `Cc1cc(-c2ccc(/N=N/c3ccc4c(S(=O)(=O)O)cc(S(=O)(=O)O)c(N)c4c3O)c(C)c2)ccc1/N=N/c1ccc2c(S(=O)(=O)O)cc(S(=O)(=O)O)c(N)c2c1O` [Evans Blue], the “Cholesterol-free media + simvastatin (0.04 μM)” value [1, 10] is reported as 1.142, the “Complete Media” value [1, 11] is reported as 0.9534 and the Difference [1, 6] is reported as −0.19. The Difference [2, 12] was −0.05, the Cholesterol-free [2, 13] was 1.165 and the Complete [2, 14] was 1.11.

With `CCOC(=O)O[C@]1(C(=O)OCCl)CC[C@H]2[C@@H]3CCC4=CC(=O)C=C[C@]4(C)[C@H]3[C@@H](O)C[C@@]21C` [Loteprednol Etabonate] the “Cholesterol-free media + simvastatin (0.04 μM)” value [1, 15] was 0.9128, the “Complete Media” value [1, 3] was 1.184 and the Difference [1, 16] was 0.27. The Cholesterol-free [2, 13] was 0.5384, the Complete [2, 14] was 0.8969 and the Difference [2, 17] was 0.36.

With Estramustine (phosphate sodium) the “Cholesterol-free media + simvastatin (0.04 μM)” value [1] was 1.251, the Difference [1] was −0.18 and the Cholesterol-free [2] was 1.196. It also gave a Complete [2] of 0.9487 and a Difference [2] of −0.25.

Oritavancin (diphosphate) was tested, and the “Cholesterol-free media + simvastatin (0.04 μM)” value [1, 10] was 1.021, the “Complete Media” value [1, 11] was 0.8102 and the Difference ([1]; complete media vs cholesterol-free media + simvastatin (0.04 μM), […]) was −0.21. The Difference ([2]; Complete minus Cholesterol-free, […]) was −0.64, the Cholesterol-free [2, 8] was 1.626 and the Complete [2, 9] was 0.9877.

For `Cc1ccc(Sc2ccccc2N2CCNCC2)c(C)c1` [Vortioxetine], the “Cholesterol-free media + simvastatin (0.04 μM)” value [1, 4] was 1.222, the “Complete Media” value [1, 5] was 0.843 and the Difference [1, 6] was −0.38. It also gave a Cholesterol-free [2, 13] of 0.5855, a Complete [2, 14] of 0.993 and a Difference [2, 17] of 0.41.

`O=c1[nH]c2ccccc2n1CCN1CCN(c2cccc(C(F)(F)F)c2)CC1` [Flibanserin] was tested, and the “Cholesterol-free media + simvastatin (0.04 μM)” value [1, 18] was 1.01, the “Complete Media” value [1, 19] was 1.089 and the Difference [1, 16] was 0.08. For the same compound, the Cholesterol-free [2, 20] was 1.364, the Complete ([2]; NCI-H292 cells, complete media) was 0.9648 and the Difference [2, 21] was −0.40.

For `Oc1cc(O)c(Cl)cn1` [Gimeracil], the “Cholesterol-free media + simvastatin (0.04 μM)” value [1, 4] was 2.327, the “Complete Media” value [1, 5] was 1.491 and the Difference [1, 6] was −0.84. For the same compound, the Difference [2, 12] was 0.07, the Cholesterol-free [2, 13] was 0.8525 and the Complete [2, 14] was 0.9232.

For `Cc1c(NC(=O)c2cccnc2)c(=O)n(-c2ccccc2)n1C` [Nifenazone], the “Cholesterol-free media + simvastatin (0.04 μM)” value [1, 18] was 0.9965, the “Complete Media” value [1, 19] was 1.032 and the Difference [1, 16] was 0.04. It also gave a Difference [2, 7] of −0.66, a Cholesterol-free [2, 8] of 1.466 and a Complete [2, 9] of 0.8088.

With `CC(=O)OCC(=O)[C@@]1(O)CC[C@H]2[C@@H]3CCC4=CC(=O)CC[C@]4(C)[C@@]3(F)[C@@H](O)C[C@@]21C` [Fludrocortisone acetate] the “Cholesterol-free media + simvastatin (0.04 μM)” value [1, 18] was 0.45, the “Complete Media” value [1, 19] was 0.5624 and the Difference [1, 16] was 0.11. The Difference [2, 12] was −0.30, the Cholesterol-free [2, 20] was 0.7353 and the Complete ([2]; NCI-H292 cells, complete media) was 0.437.

For `CCCCC1C(=O)N(c2ccccc2)N(c2ccccc2)C1=O` [Phenylbutazone], the “Cholesterol-free media + simvastatin (0.04 μM)” value [1, 18] was 1.076, the Difference [1, 16] was 0.07 and the Difference [2, 12] was −0.26. It also gave a Cholesterol-free [2, 20] of 1.376 and a Complete ([2]; NCI-H292 cells, complete media) of 1.114.

For `CC(=O)NC(CCC(N)=O)C(=O)O` (centres unmarked) [Aceglutamide], the “Cholesterol-free media + simvastatin (0.04 μM)” value [1, 15] was 0.762, the “Complete Media” value [1, 3] was 1.026 and the Difference [1, 16] was 0.26. The Cholesterol-free [2, 20] was 1.178, the Complete ([2]; NCI-H292 cells, complete media) was 0.7674 and the Difference [2, 21] was −0.41.

With `CC(COc1ccccc1)NC(C)C(O)c1ccc(O)cc1` (centres unmarked) [Isoxsuprine hydrochloride] the “Cholesterol-free media + simvastatin (0.04 μM)” value [1, 10] was 0.8873, the “Complete Media” value [1, 11] was 0.6774 and the Difference [1, 6] was −0.21. It also gave a Cholesterol-free [2, 20] of 1.314, a Complete ([2]; NCI-H292 cells, complete media) of 0.939 and a Difference [2, 21] of −0.38.

For `Cn1c(=O)c2[nH]cnc2n(C)c1=O` [Choline theophyllinate], the “Cholesterol-free media + simvastatin (0.04 μM)” value [1, 15] was 1.275, the Difference [1, 6] was −0.10 and the Difference [2, 12] was −0.20. It also gave a Cholesterol-free [2, 20] of 1.108 and a Complete ([2]; NCI-H292 cells, complete media) of 0.9038.

With `CC1=CC(=O)c2ccccc2C1=O` [Menadione] the “Cholesterol-free media + simvastatin (0.04 μM)” value ([1]; NCI-H292 cells, cholesterol-free media with simvastatin 0.04 μM, FDA drug library screen (TABLE 2)) was 1.102, the “Complete Media” value ([1]; NCI-H292 cells, complete media, FDA drug library screen (TABLE 2)) was 1.055 and the Difference ([1]; complete media minus cholesterol-free media + simvastatin (0.04 μM), >0 enhanced anti-cancer activity, about 0 neutral, <0 antagonist) was −0.05. For the same compound, the Cholesterol-free [2, 13] was 0.7683, the Complete [2, 14] was 1.342 and the Difference [2, 17] was 0.57.

With `Cc1c(C)c2c(c(C)c1O)CCC(C)(CCCC(C)CCCC(C)CCCC(C)C)O2` (racemic) [DL-alpha-Tocopherol] the “Cholesterol-free media + simvastatin (0.04 μM)” value [1, 15] was 1.155, the “Complete Media” value [1, 3] was 1.072 and the Difference [1, 6] was −0.08. For the same compound, the Cholesterol-free [2, 13] was 0.7949, the Complete [2, 14] was 1.459 and the Difference [2, 17] was 0.66.

`Cc1ccccc1OCC(O)CO` (centres unmarked) [Mephenesin] was tested, and the “Cholesterol-free media + simvastatin (0.04 μM)” value [1, 15] was 1.225, the “Complete Media” value [1, 3] was 1.535 and the Difference [1, 16] was 0.31. The Cholesterol-free [2, 13] was 0.8638, the Complete [2, 14] was 1.459 and the Difference [2, 17] was 0.60.

For `C[C@H](Cn1cnc2c(N)ncnc21)OCP(=O)(O)O` [Tenofovir], the “Cholesterol-free media + simvastatin (0.04 μM)” value [1, 15] was 0.8374, the “Complete Media” value [1, 3] was 1.066 and the Difference [1, 16] was 0.23. It also gave a Difference [2, 7] of −0.62, a Cholesterol-free [2, 8] of 1.637 and a Complete [2, 9] of 1.013.

In the case of `CO[C@H]1/C=C/O[C@@]2(C)Oc3c(C)c(O)c4c(O)c(c(/C=N/N5CCN(C6CCCC6)CC5)c(O)c4c3C2=O)NC(=O)/C(C)=C\C=C\[C@H](C)[C@H](O)[C@@H](C)[C@@H](O)[C@@H](C)[C@H](OC(C)=O)[C@@H]1C` [Rifapentine], the “Cholesterol-free media + simvastatin (0.04 μM)” value [1, 15] is reported as 1.582, the “Complete Media” value [1, 3] is reported as 1.938 and the Difference [1, 16] is reported as 0.36. For the same compound, the Difference [2, 12] was −0.06, the Cholesterol-free [2, 13] was 1.056 and the Complete [2, 14] was 0.9967.

From US20250144067A1, “PERSONALIZED STARVATION THERAPY FOR CANCER” (Faeth Therapeutics, Inc., priority 2021, published 2025)
